System: mammalian L-929 cells
Assay type: cell-based
Experimental: CCIC Huatongwei International Inspection (Suzhou) Co., Ltd. was entrusted to test the potential cytotoxic effect of a recombinant collagen M4 using mammalian L-929 cells cultured in vitro in accordance with method requirements of GB/T16886.5-2017. A test sample and a control sample were placed in a MEM medium including a 10% fetal bovine serum, and extracted in a 37°C incubator for 24 h. After the end of extraction, a cell medium is removed from ta 96-well plate (10^4 cells/well) cultured for 24 h, replaced with the corresponding extraction liquid, and cultured in a cell culture incubator (37°C, 5% CO2, humidity >90% ) for 24 h. After the end of culture, the morphology and lysis of a cell was observed under a microscope. The cytotoxicity value of a test sample was measured using a MTT method. […] After incubation for 24 h, the cell morphology of the extraction liquid with a 100% concentration of the test sample was basically intact, and a cell viability value was 83.6%. The recombinant collagen M4 had no potential cytotoxic effect under the cytotoxicity test conditions of a MTT method.

## CCN(CC)C(=S)[S-].CCN(CC)C(=S)[S-].[Zn+2] [ZDEC]
  cytotoxic effect: severe cytotoxic reaction
